Test results as given in ChEMBL document CHEMBL1148941, “A new glucosyl feruloyl quinic acid as a potential marker for roots and rhizomes of goldenseal, Hydrastis canadensis” (2004).

Tested on: Staphylococcus aureus
Assay: Antimicrobial activity against methicillin-resistant Staphylococcus aureus 1126 after 24 hrs
Type: functional

SMILES	MIC [µg/mL]
COc1cc(/C=C/C(=O)O[C@@H]2C[C@](O)(C(=O)O)C[C@@H](O)[C@H]2O)ccc1O[C@@H]1O[C@H](CO)[C@@H](O)[C@H](O)[C@H]1O	> 1000
COc1ccc2cc3[n+](cc2c1OC)CCc1cc2c(cc1-3)OCO2.[Cl-] [BERBERINE CHLORIDE]	60
